According to article PMC12016938, “A small molecule PKCε inhibitor reduces hyperalgesia induced by paclitaxel or opioid withdrawal” (JCI Insight, 2025):
“And” between values parts separate entries of the source, which are not always exact repeats. Equal values may be shown once. Read-outs that look alike come from different tables or passages of the source.

What was measured:
[1] = molecular target: T1, PKCε (Homo sapiens, UniProt Q02156); test: scanMax kinome panel (Eurofins-DiscoverX), PKCε; format: binding; set-up: purchased Eurofins-DiscoverX; conditions: 200 nM CP612
T1 sequence (Q02156 1-737): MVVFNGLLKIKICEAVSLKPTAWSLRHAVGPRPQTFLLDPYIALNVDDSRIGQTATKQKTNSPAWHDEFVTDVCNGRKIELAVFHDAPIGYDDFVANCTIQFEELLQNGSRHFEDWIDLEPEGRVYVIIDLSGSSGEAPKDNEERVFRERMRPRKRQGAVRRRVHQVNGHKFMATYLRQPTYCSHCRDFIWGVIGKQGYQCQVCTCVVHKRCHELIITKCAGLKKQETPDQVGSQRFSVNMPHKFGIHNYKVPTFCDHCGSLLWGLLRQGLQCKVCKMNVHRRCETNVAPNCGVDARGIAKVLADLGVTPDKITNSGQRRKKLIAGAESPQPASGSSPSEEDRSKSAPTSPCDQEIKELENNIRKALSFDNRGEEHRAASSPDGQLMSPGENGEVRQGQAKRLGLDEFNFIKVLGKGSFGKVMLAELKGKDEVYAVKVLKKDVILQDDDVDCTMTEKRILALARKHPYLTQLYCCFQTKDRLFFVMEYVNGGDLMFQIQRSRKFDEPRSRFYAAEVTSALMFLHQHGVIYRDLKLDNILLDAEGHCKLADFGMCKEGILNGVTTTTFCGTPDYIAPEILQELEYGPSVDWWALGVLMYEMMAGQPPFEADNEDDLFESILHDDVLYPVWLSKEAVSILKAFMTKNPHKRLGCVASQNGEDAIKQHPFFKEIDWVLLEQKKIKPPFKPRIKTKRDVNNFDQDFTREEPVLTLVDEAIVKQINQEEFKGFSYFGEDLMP
Protocol: (§1) CP612 was screened for kinome specificity at 200 nM against 468 kinases using the scanMax assay panel from Eurofins-DiscoverX. CP612 inhibited 10 other WT kinases besides PKCε, all to < 10% of control: CLK1 (CDC Like Kinase 1), CLK4, PKN1 (Protein kinase N1), PKN2, PKCδ, PKCη, PKCθ, PRKG2 (Protein Kinase CGMP-Dependent 2), ROCK1, and ROCK2.

[2] = Plasma protein binding, equilibrium dialysis (RED); format: in vitro ADME, human; conditions: for recovery at 4 h, 10 µM: Rapid Equilibrium Dialysis (RED) device
Protocol: Plasma protein binding. Binding of CP612 to human plasma proteins was measured by equilibrium dialysis using a Rapid Equilibrium Dialysis (RED) Device (Thermo Fisher Scientific). The device uses plates with wells preloaded with equilibrium dialysis membrane inserts, each of which includes 2 side-by-side chambers separated by a dialysis membrane. […] All compounds were tested in triplicate. […] A total of 200 μL of diluted test compound was then added to the plasma chambers of triplicate wells of a 48-sample RED plate (Thermo Fisher Scientific). In total, 400 μL of 0.1M PBS buffer were added to each buffer chamber. The plate was sealed with adhesive foil and incubated at 37°C with shaking for 4 hours, after which 30 μL were removed from each chamber and diluted with either 30 μL of plasma (for buffer chamber samples) or 30 μL of 0.1M PBS (for plasma chamber samples). Samples were extracted with 3 volumes of acetonitrile, centrifuged at 16,000g at 4°C for 10 minutes, and analyzed by LC-MS to calculate the amount of drug in each chamber. The percentage of free compound was calculated as the concentration in the buffer chamber/concentration in the plasma chamber × 100%. The percentage of protein-bound compound was calculated as 100% – the percentage of free compound.

[3] = Plasma stability; conditions: for % Absolute: human plasma (hPL); for half-life: human
Protocol: Plasma stability. To determine in vitro plasma stability, we calculated in vitro plasma half-life. We incubated test substances (0.6 μL) with 60 μL human plasma (BioIVT) in quadruplicate at 37°C.

[4] = molecular target: T2, CLK1 (CDC Like Kinase 1) (Homo sapiens, UniProt P49759); test: scanMax kinome panel, CLK1; format: binding; conditions: 200 nM CP612; read-out: scanMax % of control, CLK1
T2 construct: purchased Eurofins-DiscoverX
Protocol: as §1

[5] = in vitro; conditions: human, microsomes; for half-life at 8.5 μM: both
Protocol: Microsomal clearance. To determine if CP612 was a likely substrate for first-pass hepatic metabolism, we measured the stability of CP612 in the presence of human liver microsomes (BioIVT) pooled from over 100 male and female individuals. […] Test compounds were diluted to 10 μM in 0.1M PBS, and then 51 μL were dispensed in quadruplicate into wells of a 96-well plate, which was shaken at 600 rpm at 37°C. Reactions were initiated by adding 1.5 μL of microsomes (20 mg/mL) to the wells and 3 minutes later adding 7.5 μL of 8 mM NADPH (1 mM final concentration). Samples incubated without NADPH were used as negative controls.

[6] = molecular target: T3, PRKG2 (Protein Kinase CGMP-Dependent 2) (Homo sapiens, UniProt Q13237); test: scanMax kinome panel, PRKG2; format: binding; conditions: 200 nM CP612
T3 construct: purchased Eurofins-DiscoverX
Protocol: as §1

T2 sequence (P49759 whole entry): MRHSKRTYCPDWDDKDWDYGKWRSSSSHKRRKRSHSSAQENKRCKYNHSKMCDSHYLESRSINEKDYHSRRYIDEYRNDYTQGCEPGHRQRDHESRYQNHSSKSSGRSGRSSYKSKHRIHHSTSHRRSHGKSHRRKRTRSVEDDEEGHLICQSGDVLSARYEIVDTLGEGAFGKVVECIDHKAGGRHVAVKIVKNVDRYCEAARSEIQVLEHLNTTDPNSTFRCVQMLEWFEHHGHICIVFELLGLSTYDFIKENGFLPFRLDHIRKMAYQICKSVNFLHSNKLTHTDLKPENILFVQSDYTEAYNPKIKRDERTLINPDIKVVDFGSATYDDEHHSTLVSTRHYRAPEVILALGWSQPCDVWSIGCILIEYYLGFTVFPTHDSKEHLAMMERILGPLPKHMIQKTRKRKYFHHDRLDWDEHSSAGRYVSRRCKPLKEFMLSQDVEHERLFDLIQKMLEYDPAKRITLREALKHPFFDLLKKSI
T3 sequence (Q13237 whole entry): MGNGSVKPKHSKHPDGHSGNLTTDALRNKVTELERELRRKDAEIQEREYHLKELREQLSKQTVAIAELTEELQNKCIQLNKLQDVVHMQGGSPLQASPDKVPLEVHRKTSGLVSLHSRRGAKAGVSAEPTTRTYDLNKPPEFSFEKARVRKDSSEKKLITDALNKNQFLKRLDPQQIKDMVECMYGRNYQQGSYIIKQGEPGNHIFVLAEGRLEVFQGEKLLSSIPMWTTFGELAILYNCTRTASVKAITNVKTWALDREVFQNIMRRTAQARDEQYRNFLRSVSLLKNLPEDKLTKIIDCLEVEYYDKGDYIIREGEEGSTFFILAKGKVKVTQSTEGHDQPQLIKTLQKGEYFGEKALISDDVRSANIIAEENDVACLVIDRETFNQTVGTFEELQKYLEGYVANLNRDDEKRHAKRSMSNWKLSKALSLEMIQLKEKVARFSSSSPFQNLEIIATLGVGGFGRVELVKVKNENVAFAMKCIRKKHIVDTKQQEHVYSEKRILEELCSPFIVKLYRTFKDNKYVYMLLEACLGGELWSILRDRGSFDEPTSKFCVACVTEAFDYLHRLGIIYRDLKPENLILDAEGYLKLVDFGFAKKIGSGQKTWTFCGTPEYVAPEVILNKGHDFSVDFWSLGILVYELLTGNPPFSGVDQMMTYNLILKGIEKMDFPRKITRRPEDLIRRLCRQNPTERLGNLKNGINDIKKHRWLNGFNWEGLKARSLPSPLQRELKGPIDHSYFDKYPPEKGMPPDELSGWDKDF

Compound: N[C@H](CNC(=O)C1(c2ccc(Cl)cc2)CCCC1)c1ccc(C(=O)Nc2ccncc2)cc1 [CP612]
- scanMax result, PKCε [1]: inhibited
- % Free ([2]; (Corrected concentration in PBS / Corrected concentration in Plasma) * 100, individual replicates): 9.57% and 8.99%
- % Recovery ([2]; PBS + Plasma relative to starting concentration of 10 uM, individual replicates): 52.74% and 59.65%
- % Absolute (Sample_PBS) ([2]; PBS compartment, relative to starting concentration of 10 uM, individual replicates): 6.46% and 4.60% and 4.92%
- fraction unbound at 4 h, 10 μM ([2]; human plasma, individual replicates, read-out: % Bound (converted)): 0.121
- fraction unbound at 4 h, 10 μM ([2]; human, human plasma, 37°C, 4 hours, read-out: Plasma protein binding (% bound) (converted)): 0.102
- recovery at 4 h, 10 µM ([2]; human, human plasma, PBS + Plasma relative to starting concentration of 10 uM, individual replicates, read-out: % Recovery): 59.9%
- recovery at 4 h, 10 µM ([2]; human, human plasma, PBS + Plasma relative to starting concentration of 10 uM, mean of replicates, read-out: % Recovery, Mean): 57.4%
- fraction unbound at 4 h, 10 μM ([2]; human, plasma, (Corrected concentration in PBS / Corrected concentration in Plasma) * 100, individual replicates, read-out: % Free): 0.121
- fraction unbound at 4 h, 10 μM ([2]; human, plasma, mean of replicates, read-out: % Bound, Mean (converted)): 0.102
- fraction unbound at 4 h, 10 μM ([2]; human, plasma, mean of replicates, read-out: % Free, Mean): 0.102
- % Bound ([2]; individual replicates): 90.43% and 91.01%
- % Absolute (Sample_Plasma) ([2]; plasma compartment, relative to starting concentration of 10 uM, individual replicates): 53.46% and 48.13% and 54.72%
- Plasma stability (in words) ([3]; human plasma): good
- % Absolute ([3]; time 0 min, individual replicates): 98.366% and 71.452% and 77.756%
- % Absolute ([3]; time 15 min, individual replicates): 34.724% and 41.198% and 31.011%
- % Absolute ([3]; time 30 min, individual replicates): 46.894% and 51.340% and 53.939%
- % Absolute ([3]; time 60 min, individual replicates): 48.950% and 36.305% and 40.476%
- Plasma stability Cl ([3]; human plasma, 37°C): 0.46 ± 0.04 µL/min
- Cl (clearance) ([3]; human plasma, individual replicates): 0.504 and 0.448 and 0.437
- t1/2 (half life) ([3]; human plasma, individual replicates, time axis in min, in min): 92.829 and 95.187
- k ([3]; human plasma, slope of Ln Transform vs Time (min), individual replicates): -0.008 and -0.00747 and -0.007
- half-life ([3]; human plasma, Plasma stability t½ (min), 37°C): 1.5 ± 0.113 h
- half-life ([3]; plasma, t1/2 (half life), Mean, human plasma, mean of replicates, time axis in min): 1.5 h
- half-life ([3]; plasma, t1/2 (half life), human plasma, individual replicates, time axis in min): 1.37 h
- remaining binding at 0.2 µM [4]: < 10%
- half-life at 8.5 μM ([5]; Microsomal clearance t½ (min)): 10.5 ± 1.31 h
- half-life at 8.5 μM ([5]; t1/2 (half life)): 10.8 h
- half-life at 8.5 μM ([5]; t1/2 (half life), Mean): 10.5 h
- CLint (clearance), Mean [5]: 2.23
- Microsomal clearance (in words) [5]: low
- Microsomal clearance Cl [5]: 2.23 ± 0.29 µL/min
- scanMax % of control, PRKG2 [6]: < 10 % of control
